In brackets after ≈: the same amount, converted by molar mass. Where two headings read alike, the source gives them in different places.
Assays:
Assay in all cases: Minimum inhibitory concentration, conventional tube dilution method
Format in all cases: cell-based
[1] = system: Candida albicans; conditions: read-out: Minimal Inhibitory Concentration, Cand. Alb.
From the text: (§1) The activity of some of the new nitrofuryl quinoline derivatives of the present invention is exemplified in Table 1 against a gram-positive (Staph. aureus), a gram-negative (Salmonella) bacterium and a fungus (Candida albicans). Table 1 indicates the minimum inhibitory concentration of the compound under reference in mg/100 cc required in order to inhibit the growth between 1 and 6 strains of each type. The measurements have been carried out by the conventional tube dilution method at 37 degrees after 24 hours.

[2] = system: Salmonella; conditions: read-out: Minimal Inhibitory Concentration, Salm.
From the text: as §1

[3] = system: Staph. aureus; conditions: Staphylococcus aureus, read-out: Minimal Inhibitory Concentration, Staph. aureus
From the text: as §1

[4] = fungus, tube dilution, 37 degrees, 24 hours, between 1 and 6 strains, mg/100 cc, decimal comma
[5] = gram-negative, tube dilution, 37 degrees, 24 hours, between 1 and 6 strains, mg/100 cc, decimal comma
[6] = gram-positive, tube dilution, 37 degrees, 24 hours, between 1 and 6 strains, mg/100 cc, decimal comma

Compound | MIC [1, 4] [µg/mL] | MIC [2, 5] [µg/mL] | MIC [3, 6] [µg/mL] | MIC ([1]; 24 h) [µg/mL] | MIC ([3]; 24 h) [µg/mL] | MIC ([2]; 24 h) [µg/mL]
Cc1ccc2c(-c3ccc([N+](=O)[O-])o3)cc(C)nc2c1 [CH3 H NF H H CH3 H, 2,7-dimethyl-4-[2'-(5'-nitrofuryl)]quinoline] | 3 (≈ 11.2 µM) | 2 to 5 (≈ 7.46 to 18.6 µM) | 0.05 to 0.1 (≈ 0.186 to 0.373 µM) |  |  | 
Cc1cc(-c2ccc([N+](=O)[O-])o2)c2ccc(Cl)cc2n1 [CH3 H NF H H Cl H, 2-methyl-4-[2'-(5'-nitrofuryl)]-7-chloro quinoline] | 25 (≈ 86.6 µM) | 0.5 (≈ 1.73 µM) | 0.1 (≈ 0.346 µM) |  |  | 
Cc1cc(-c2ccc([N+](=O)[O-])o2)c2cccc(C)c2n1 [CH3 H NF H H H CH3, 2,8-dimethyl-4-[2'-(5'-nitrofuryl)]quinoline] | 5 (≈ 18.6 µM) | > 50 | 0.3 (≈ 1.12 µM) |  |  | 
Cc1cc(-c2ccc([N+](=O)[O-])o2)c2ccccc2n1 [CH3 H NF H H H H, 2-methyl-4-[2'-(5'-nitrofuryl)] quinoline] | 5 (≈ 19.7 µM) | 5 (≈ 19.7 µM) | 0.1 to 1 (≈ 0.393 to 3.93 µM) |  |  | 
Cc1cc(-c2ccc([N+](=O)[O-])o2)c2ccc(NC(=O)C(F)(F)F)c(C)c2n1 [CH3 H NF H H NHCOCF3 CH3] | > 50 | > 50 | 0.5 (≈ 1.32 µM) |  |  | 
CC(=O)Nc1ccc2c(-c3ccc([N+](=O)[O-])o3)cc(C)nc2c1C [CH3 H NF H H NHCOCH3 CH3] | > 50 | > 50 | 1 (≈ 3.07 µM) |  |  | 
CCOc1ccc2c(-c3ccc([N+](=O)[O-])o3)cc(C)nc2c1 [CH3 H NF H H OC2 H5 H, 2-methyl-4-[2'-(5'-nitrofuryl)]-7-ethoxy quinoline] | 25 (≈ 83.8 µM) | 5 (≈ 16.8 µM) | 0.1 (≈ 0.335 µM) |  |  | 
Cc1cc(-c2ccc([N+](=O)[O-])o2)c2ccc(O)cc2n1 [CH3 H NF H H OH H, 2-methyl-4-[2'-(5'-nitrofuryl)]-7-hydroxy quinoline] | 10 (≈ 37 µM) | 5 (≈ 18.5 µM) | 0.1 (≈ 0.37 µM) |  |  | 
CCCCOc1cc2nc(C)cc(-c3ccc([N+](=O)[O-])o3)c2cc1OCCCC [CH3 H NF H OC4 H9 OC4 H9 H] | > 50 | 10 (≈ 25.1 µM) | 5 (≈ 12.5 µM) |  |  | 
COc1cc2nc(C)cc(-c3ccc([N+](=O)[O-])o3)c2cc1OC [CH3 H NF H OCH3 OCH3 H] | > 50 | 25 (≈ 79.5 µM) | 0.5 to 1 (≈ 1.59 to 3.18 µM) |  |  | 
Cc1cc(-c2ccc([N+](=O)[O-])o2)c2cc3ccccc3cc2n1 [CH3 H NF H drawing 6 H, 2-methyl-4-[2'-(5'-nitrofuryl)]-6,7-benzoquinoline] | > 50 | > 10 | 5 (≈ 16.4 µM) |  |  | 
Cc1cc(-c2ccc([N+](=O)[O-])o2)c2c([N+](=O)[O-])ccc(C)c2n1 [CH3 H NF NO2 H H CH3] |  | > 50 |  | > 50 | 0.5 to 1 (≈ 1.6 to 3.19 µM) | 
COc1ccc(OC)c2c(-c3ccc([N+](=O)[O-])o3)cc(C)nc12 [CH3 H NF OCH3 H H OCH3, 2-methyl-4-[2'-(5'-nitrofuryl)]-5,8-dimethoxy quinoline] | > 50 | > 50 | 50 (≈ 159 µM) |  |  | 
COc1cc(OC)c2c(-c3ccc([N+](=O)[O-])o3)cc(C)nc2c1 [CH3 H NF OCH3 H OCH3 H] | > 50 | > 50 | 0.5 (≈ 1.59 µM) |  |  | 
CC(=O)OC(OC(C)=O)c1cc(-c2ccc([N+](=O)[O-])o2)c2ccccc2n1 [CH(OAc)2 H NF H H H H] | 25 to 50 (≈ 67.5 to 135 µM) | 5 (≈ 13.5 µM) | 0.1 (≈ 0.27 µM) |  |  | 
CCN(CC)C(=O)c1cc(-c2ccc([N+](=O)[O-])o2)c2ccccc2n1 [CON(C2 H5)2 H NF H H H H, 4-[2'-(5'-nitrofuryl)]quinoline-2-carboxylic acid diethylamide] | > 50 | > 50 | 0.5 to 1 (≈ 1.47 to 2.95 µM) |  |  | 
Cc1ccc2c(-c3ccc([N+](=O)[O-])o3)cc(C(=O)O)nc2c1 [COOH H 5NF H H CH3 H, 2-carboxy-4-[2'-(5'-nitrofuryl)]-7-methyl quinoline] | 50 (≈ 168 µM) | 25 (≈ 83.8 µM) | 0.5 (≈ 1.68 µM) |  |  | 

Compound | MIC [1, 4] [µg/mL] | MIC [2, 5] [µg/mL] | MIC [3, 6] [µg/mL] | MIC ([1]; 24 h) [µg/mL] | MIC ([3]; 24 h) [µg/mL] | MIC ([2]; 24 h) [µg/mL]
COc1ccc2c(-c3ccc([N+](=O)[O-])o3)cc(C(=O)O)nc2c1 [COOH H 5NF H H OCH3 H] | 50 (≈ 159 µM) | 10 (≈ 31.8 µM) | 0.5 (≈ 1.59 µM) |  |  | 
O=C(O)c1cc(-c2ccc([N+](=O)[O-])o2)c2ccccc2n1 [COOH H NF H H H H, 2-carboxy-4-[2'-(5'-nitrofuryl)]quinoline] | 30 to 50 (≈ 106 to 176 µM) | > 10 | 1 (≈ 3.52 µM) |  |  | 
CCOc1ccc2c(-c3ccc([N+](=O)[O-])o3)cc(C(=O)O)nc2c1 [COOH H NF H H OC2 H5 H, 2-carboxy-4-[2'-(5'-nitrofuryl)]-7-ethoxy quinoline] | > 50 | 5 (≈ 15.2 µM) | 0.5 (≈ 1.52 µM) |  |  | 
O=[N+]([O-])c1ccc(-c2ccnc3ccccc23)o1 [H H NF H H H H, 4-[2'-(5'-nitrofuryl)]quinoline] | 1 (≈ 4.16 µM) | 5 (≈ 20.8 µM) | 0.1 to 0.5 (≈ 0.416 to 2.08 µM) |  |  | 
Cc1cc(-c2ccc([N+](=O)[O-])o2)nc2ccccc12 [NF H CH3 H H H H, 2-[2'-(5'-nitrofuryl)]-4-methyl quinoline] | 0.5 (≈ 1.97 µM) | 5 (≈ 19.7 µM) | 0.2 to 0.5 (≈ 0.787 to 1.97 µM) |  |  | 
O=[N+]([O-])c1ccc(-c2ccc3ccccc3n2)o1 [NF H H H H H H, 2-[2'-(5'-nitrofuryl)]quinoline] | 2 to 5 (≈ 8.33 to 20.8 µM) |  | 0.5 (≈ 2.08 µM) |  |  | 25 (≈ 104 µM)
CCc1ccc2c(c1)c(-c1ccc([N+](=O)[O-])o1)cc(CC)[n+]2[O-] [O C2 H5 H NF H C2 H5 H H] | 5 to 10 (≈ 16 to 32 µM) | > 10 | 0.1 (≈ 0.32 µM) |  |  | 
CCc1cc(-c2ccc([N+](=O)[O-])o2)c2ccc(C)cc2[n+]1[O-] [O C2 H5 H NF H H CH3 H] | < 5 | 25 to 50 (≈ 83.8 to 168 µM) | 0.5 (≈ 1.68 µM) |  |  | 
CCc1cc(-c2ccc([N+](=O)[O-])o2)c2ccccc2[n+]1[O-] [O C2 H5 H NF H H H H] | 3 (≈ 10.6 µM) | 25 to 50 (≈ 87.9 to 176 µM) | 0.3 (≈ 1.06 µM) |  |  | 
CCCc1cc(-c2ccc([N+](=O)[O-])o2)c2cc(C)ccc2[n+]1[O-] [O C3 H7 H NF H CH3 H H] | 5 to 25 (≈ 16 to 80 µM) | > 50 | 1 to 5 (≈ 3.2 to 16 µM) |  |  | 
CCc1ccc2c(c1)c(-c1ccc([N+](=O)[O-])o1)cc(C)[n+]2[O-] [O CH3 H NF H C2 H5 H H] | 2 to 5 (≈ 6.7 to 16.8 µM) | 25 (≈ 83.8 µM) | 0.5 (≈ 1.68 µM) |  |  | 
Cc1ccc2c(c1)c(-c1ccc([N+](=O)[O-])o1)cc(C)[n+]2[O-] [O CH3 H NF H CH3 H H] | 2 to 5 (≈ 7.04 to 17.6 µM) | > 25 | 0.1 (≈ 0.352 µM) |  |  | 
Cc1cc(-c2ccc([N+](=O)[O-])o2)c2ccc(Cl)cc2[n+]1[O-] [O CH3 H NF H H Cl H, 2-methyl-4-[2'-(5'-nitrofuryl)]-7-chloro-quinoline N-oxide] | 2 to 5 (≈ 6.56 to 16.4 µM) | > 25 | 1 (≈ 3.28 µM) |  |  | 
Cc1cc(-c2ccc([N+](=O)[O-])o2)c2ccccc2[n+]1[O-] [O CH3 H NF H H H H, 2-methyl-4-[2'-(5'-nitrofuryl)] quinoline N-oxide] | 1 (≈ 3.7 µM) | 10 (≈ 37 µM) | 0.2 to 0.5 (≈ 0.74 to 1.85 µM) |  |  | 
CCOc1ccc2c(-c3ccc([N+](=O)[O-])o3)cc(C)[n+]([O-])c2c1 [O CH3 H NF H H OC2 H5 H] | 10 (≈ 31.8 µM) | 10 to 50 (≈ 31.8 to 159 µM) | 0.05 to 0.1 (≈ 0.159 to 0.318 µM) |  |  | 
COc1ccc2c(-c3ccc([N+](=O)[O-])o3)cc(C)[n+]([O-])c2c1 [O CH3 H NF H H OCH3 H, 2-methyl-4-[2'-(5'-nitrofuryl)]-7-methoxy quinoline N-oxide] | 0.5 (≈ 1.67 µM) | 5 (≈ 16.7 µM) | 0.1 (≈ 0.333 µM) |  |  | 

Reference: US4224448A, “2'-(5'-Nitrofuryl) substituted quinolines” (priority 1966, dated 1980)
